Patent US6706725B1, “Vitamin D analogues” (Galderma Research & Development, S.N.C., priority 1999, dated 2004)

target: T1, human VDR receptor (Homo sapiens, UniProt P11473); experiment: VDR agonist activity by co-transfection in HeLa cells (human VDR expression vector + p240Hase-CAT reporter, CAT ELISA); assay type: cell-based; settings: HeLa cell line co-transfected with human VDR and rat 24-hydroxylase promoter-CAT reporter; treatment for 18 hours; read-out: AC 50 (dose required to achieve 50% of the maximum activity of the product)
T1 construct: expressed in transfected cells; host or cells: HeLa
T1 sequence (P11473 1-427): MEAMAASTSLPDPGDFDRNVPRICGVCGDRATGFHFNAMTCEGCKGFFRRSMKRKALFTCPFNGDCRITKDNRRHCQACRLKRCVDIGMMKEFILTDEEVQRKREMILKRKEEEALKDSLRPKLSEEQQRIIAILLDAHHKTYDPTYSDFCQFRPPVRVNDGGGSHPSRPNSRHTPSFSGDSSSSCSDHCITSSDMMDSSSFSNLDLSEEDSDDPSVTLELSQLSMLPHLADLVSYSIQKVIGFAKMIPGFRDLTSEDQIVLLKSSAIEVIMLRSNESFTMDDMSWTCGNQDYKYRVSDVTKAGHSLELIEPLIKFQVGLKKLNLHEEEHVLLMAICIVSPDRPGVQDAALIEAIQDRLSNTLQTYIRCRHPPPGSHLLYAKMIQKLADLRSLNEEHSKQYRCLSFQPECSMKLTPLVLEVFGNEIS
Protocol: By way of example, the VDR agonist activity can be tested on the HeLa cell line by co-transfection with an expression vector for the human VDR receptor and the reporter plasmid p240Hase-CAT which contains the region −1399 to +76 of rat 24-hydroxylase promoter, cloned upstream of the frame encoding the chloramphenicol-acetyl-transferase (CAT) gene. 18 hours after co-transfection, the test product is added to the medium. After treatment for 18 hours, assay of the CAT activity in the cell lysates is carried out by an ELISA test. The results are expressed as percentages of the effect normally observed with 10^−7M calcitriol.
The agonist activity can also be characterized in the co-transfection system, by determining the dose required to reach 50% of the maximum activity of the product (AC50).
The VDR agonist activity was tested on the HeLa cell line, by co-transfection of an expression vector of the human VDR receptor and of the reporter plasmid p240Hase-CAT which contains the region −1399 to +76 of the rat 24-hydroxylase promoter, cloned upstream of the coding frame of the chloramphenicol-acetyl-transferase (CAT) gene. 18 hours after co-transfection, the test product is added to the medium. After treatment for 18 hours, the CAT activity of the cell lysates is assayed by an ELISA test. The results are expressed as a percentage of the effect normally observed with 10^−7 M of calcitriol.
The agonist activity was characterized in this co-transfection system by determining the dose required to achieve 50% of the maximum activity of the product (AC50).

AC50 [µM]	SMILES
0.192	CCC(O)(CC)CC/C=C(\C)c1ccc(COc2ccc(CO)c(CO)c2)s1 [Example 1, (E)-7-[5-(3,4-bis-Hydroxymethyl-phenoxymethyl)-2-thienyl]-3-ethyloct-6-en-3-ol]
0.267	CCC(O)(CC)CC/C=C(\C)c1cc(COc2ccc(CO)c(CO)c2)cs1 [Example 2, (E)-7-[4-(3,4-bis-Hydroxymethyl-phenoxymethyl)-2-thienyl]-3-ethyloct-6-en-3-ol]
0.294	CC/C(=C\CCC(O)(CC)CC)c1cccc(COc2ccc(CO)c(CO)c2)n1 [Example 4, (E)-7-[6-(3,4-bis-Hydroxymethyl-phenoxymethyl)-2-pyridyl]-3-ethylnon-6-en-3-ol]
0.061	CC/C(=C\CCC(O)(CC)CC)c1ccc(COc2ccc(CO)c(CO)c2)s1 [Example 6, (E)-7-[5-(3,4-bis-Hydroxymethyl-phenoxymethyl)-2-thienyl]-3-ethylnon-6-en-3-ol]
0.017	CC/C(=C\C=C\C(O)(CC)CC)c1ccc(COc2ccc(CO)c(CO)c2)s1 [Example 7, (4E,6E)-7-[5-(3,4-bis-Hydroxymethyl-phenoxymethyl)-2-thienyl]-3-ethylnona-4,6-dien-3-ol]
0.029	CC/C(=C\CCC(O)(CC)CC)c1ccc(CCc2ccc(CO)c(CO)c2)s1 [Example 8, (E)-7-{5-[2-(3,4-bis-Hydroxymethyl-phenyl)ethyl]-2-thienyl}-3-ethylnon-6-en-3-ol]
0.023	CC/C(=C\CCC(O)(CC)CC)c1cc(CCc2ccc(CO)c(CO)c2)cs1 [Example 10, (E)-7-[4-[2-(3,4-bis-Hydroxymethyl-phenyl)ethyl]-2-thienyl)-3-ethylnon-6-en-3-ol]
0.655	CC/C(=C\CCC(O)(CC)CC)c1csc(COc2ccc(CO)c(CO)c2)c1 [Example 12, (E)-7-[5-(3,4-bis-Hydroxymethyl-phenoxymethyl)-3-thienyl]-3-ethylnon-6-en-3-ol]
0.078	CC/C(=C\C=C\C(O)(C(F)(F)F)C(F)(F)F)c1ccc(COc2ccc(CO)c(CO)c2)s1 [Example 13, (3E,5E)-6-[5-(3,4-bis-Hydroxymethyl-phenoxymethyl)-2-thienyl]-1,1,1-trifluoro-2-trifluoromethylocta-3,5-dien-2-ol]
